The values below come from patent US20030153513A1, “Preventives or remedies for obesity or fatty liver” (priority 2000, published 2003).

Assay type in all cases: in vivo
One experiment deals with KKAy/Ta Jcl mice. The experiment can be described thus: Test Example 2: triglyceride level in liver tissue, obesity model mice, 2 weeks. The procedure:
In a similar way to Test Example 1, the male KKAy/Ta Jcl mice aged 10 weeks were orally administered with the compound of Preparation 1 at 10 mg/kg/day, and fed a diet containing 3% cholestyramine (corresponding to about 4 g/kg/day) for two weeks continuously, and the level of triglyceride in the liver tissue was determined (eight animals per group). Also, the control was administered with only a vehicle (5% aqueous gum arabic solution).

In experiment [1] the test system is KKA^y/Ta Jcl mice. The experiment can be described thus: Test Example 1: triglyceride level in liver tissue, obesity model mice, 12 weeks oral. Conditions: 10 mg/kg/day. The procedure: (§1) In the test example, each 10 of the male KKA^y/Ta Jcl mice and C57BL/6J mice aged 10 weeks were used as obesity model mice and non-obesity normal model mice, respectively. The compound of Preparation 1 was orally administered to the animals at 10 mg/kg/day for 12 weeks continuously, and the body weights of the animals were daily measured. Four hours after the final administration of the compound, the animals were sacrificed, and the levels of triglyceride in the liver tissues were determined.
(§2) The compound of Preparation 1 had been suspended in an aqueous solution of 5% gum arabic (Nakarai Chemcial, Lot. M5E5329) to provide a 0.1% suspension for use. As a control, only a vehicle (5% aqueous gum arabic solution) was administered as well, and the triglyceride level was also determined.

Experiment [2] deals with KKA^y/Ta Jcl mice. The experiment is described as follows: Test Example 1: body weight increase, obesity model mice, 12 weeks oral. The conditions noted are these: 10 mg/kg/day oral, FIG. 1-B. The protocol: as §1, §2
Experiment [3] relates to C57BL/6J mice. The experiment can be described thus: Test Example 1: triglyceride level in liver tissue, normal mice, 12 weeks oral. The conditions noted are these: oral administration for 12 weeks, 10 mg/kg/day, 4 h after final dose. The protocol:
as §1, §2

For experiment [4], the system named is C57BL/6J mice. The experiment is described as follows: Test Example 1: body weight increase, non-obesity normal mice, 12 weeks oral. The conditions noted are these: non-obesity normal C57BL/6J mice, 10 mg/kg/day oral, FIG. 1-A. The procedure: as §1, §2

`CCC(CC)CC(=O)c1c(C(=O)OC)c(-c2ccc(OC)c(OC)c2)c2c(OC)c(OC)c(OC)cc2c1O` [Compound of Prep. 1, Methyl 1-(3,4-dimethoxyphenyl)-3-(3-ethylvalelyl)-4-hydroxy-6,7,8-trimethoxy-2-naphthoate]: the “triglyceride level in the liver tissue compared to the control (in words)” value is “significant decrease” with KKAy/Ta Jcl mice (2 weeks, as shown in Table 2) and “significant decrease” with KKA^y/Ta Jcl mice [1] (12 weeks oral, as shown in Table 1). The “triglyceride (liver tissue)” value in the experiment on KKAy/Ta Jcl mice (administration for 2 weeks, Prep. 1 10 mg/kg/day oral, cholestyramine 3% in diet (about 4 g/kg/day)) is recorded as 49.2 ± 7.7 mg/g; in the experiment on KKA^y/Ta Jcl mice [1] (KKA^y mice, oral administration for 12 weeks, 4 h after final dose), 74.7 ± 7.4 mg/g; with C57BL/6J mice [3], 13.2 ± 1.2 mg/g. In the experiment on KKA^y/Ta Jcl mice [2], the “inhibition of weight gain” value is reported as “significant inhibition of weight gain”. Moreover, the “rate of increase in body weight compared with the control” value in the experiment with C57BL/6J mice [4] is “no significant difference”.
